Measurements: patent US20240293514A1, “PHARMACEUTICAL COMPOSITIONS COMPRISING GLP-1R AGONISTS” (4MOVING BIOTECH, priority 2021, published 2024)
Marks after values point to notes of the source that are not given here.

Legend:
Assay type in all cases: in vivo, SD rats
[1] = test system: MIA-induced model of osteoarthritis and inflammatory pain in rats; test: Von Frey filaments test, various GLP-1R agonists, MIA-induced model (Example 7)
Experimental: (§1) Seven groups comprising 8 SD rats per group were allocated for this study performed in 2 cycles (4 SD rats/cycle). Chemically-induced OA disease was performed on six out of seven groups by injecting intra-articularly (IA) in the right knee joint 3 mg of MIA in 30 μL on day 1. The control group (sham/vehicle control) received 30 μL of saline IA in the right knee joint. […] All groups 31M-37M received 1 IA injection of either saline (group 31M) or MIA (groups 32M to 37M) on day 1 and the treatment injection on day 3. During the study, body weight measurements (twice a week) and von Frey tests using electronic von Frey apparatus (on day 2, 7, for C1) and von Frey filaments (on day 10, 18, 24 and 30 for Cl, and on day 2, 7, 10, 18, 24 and 30 for C2) were performed. Group allocation was performed on day 2, based on von Frey results. Knee harvesting was performed for optional analyses at study termination at day 32.
(§2) A solution comprising dulaglutide is prepared from the product Trulicity®. Trulicity® is a commercial dulaglutide drug. Trulicity® is supplied as a “ready to use” solution at 4.5 mg/0.50 mL. It will be diluted in the appropriate volume of vehicle (NaCl 0.9%) for injection into knee joint of 270 μg in 30 μL per rat for group 33M.
(§3) Bydureon® is supplied as a “ready to use” solution at 2 mg/0.65 mL. It will be diluted in the appropriate volume of vehicle (NaCl 0.9%) for injection into knee joint of 92.31 μg in 30 μL per rat for group 34M.
(§4) Bydureon Bcise® is supplied as a “ready to use” solution at 2.35 mg/mL. It will be diluted in the appropriate volume of vehicle (NaCl 0.9%) for injection into knee joint of 70.6 μg in 30 μL per rat for group 35M.
(§5) A solution comprising lixisenatide is prepared from the product Adlyxin®. Adlyxin® is a commercial lixisenatide drug. Adlyxin® is supplied as a “ready to use” solution at 100 μg/mL. It will be diluted in the appropriate volume of vehicle (NaCl 0.9%) for injection into knee joint of 3 μg in 30 μL per rat for group 36M.
(§6) It will be diluted in the appropriate volume of vehicle (NaCl 0.9%) for injection into knee joint of 180 μg in 30 μL per rat for group 37M.
(§7) 56 male SD rats aged 9 weeks were anesthetized via a chamber induction technique using inhalation anesthesia (Isoflurane at 5%). During the procedure, the animal was maintained under Isoflurane at a level between 1.5 and 3% with an air flow rate of 1-2 liters/minute. After induction of anesthesia, the right hind limb skin surface was clipped free of hair using electric animal clippers. After shaving, the area surrounding the knee joint was wiped with alcohol. A volume of 30 μL containing 3 mg MIA was injected intra-articularly (IA) in the knee joint through the patellar tendon. A 29-gauge, 0.5-inch needle that fitted with cannulation tubing was used such that only 3 to 4 mm of the needle was allowed to puncture the joint. After injection, the knee was massaged to ensure even distribution of the solution. Animals were injected once on day 1 (groups 32M, 33M, 34M, 35M, 36M, 37M). For group 31M (sham control), 30 μL of injectable saline was injected into knee joint.
(§8) Von Frey test in the rats following MIA injection was conducted according to 4P-Pharma's proceedings “Mechanical Neuropathic Pain Evaluation (electronic Von Frey)” and to 4P-Pharma's proceedings “Mechanical Neuropathic Pain Evaluation (Von Frey)”. Rats were placed individually in the designated transparent Plexiglas chambers and allowed to acclimate for 10-15 min. Withdrawal response to mechanical stimulation was determined using electronic von Frey apparatus (BIO-EVF5, Bioseb) with a 0.5 mm diameter tip placed on the stimulator handle applied from underneath the cage through openings (12×12 mm) in the plastic mesh floor or with von Frey filaments (Bio-VF-M, Bioseb). The withdrawal response in gram-force for each rat was calculated from three trials for von Frey apparatus and once with von Frey filaments.

[2] = test system: MIA-induced model of osteoarthritis and inflammatory pain in rats; test: Electronic von Frey test, various GLP-1R agonists, MIA-induced model (Example 7, cycle 1)
Experimental: as §1, §2, §3, §4, §5, §6, §7, §8

[3] = test system: MIA-induced model of osteoarthritis and inflammatory pain in rats; test: Electronic and equivalent von Frey scores normalized to vehicle group (Example 7)
Experimental: Allodynia in rats following OA induction on day 1 was evaluated on day 2 and on day 7 using both Electronic (for cycle 1) and von Frey filaments (for cycle 2). Both tests are reliable and valid for the assessment of the mechanical sensitivity in the ipsilateral hind paw of rats. Additionally, von Frey filament score can be transposed approximately to an equivalent electronic von Frey score (theorical pressure in grams/mm^2). To assure the obtained results, we performed a test using both von Frey filaments and Electronic von Frey apparatus on three rats from three different groups (31M, 32M and 37M).
Equivalent electronic von Frey score was calculated using the “Aesthesio Precision Tactile sensory data chart” from the results obtained with von Frey filaments. Thus, to have a more representative vision of the results obtained in previous experiments using the electronic von Frey apparatus, we combine both the electronic von Frey scores obtained from Cycle 1 (Day 2 and 7) and the equivalent score calculated from the results obtained with the von Frey filaments for Cycle 1 (from day 10) and Cycle 2.

[4] = 270 μg IA once on day 3, D2 (baseline before treatment)
[5] = 3 μg IA once on day 3, D2 (baseline before treatment)
[6] = 180 μg IA once on day 3, D2 (baseline before treatment)

dulaglutide
right paw withdrawal threshold, von Frey filaments (mean) [1, 4]: 2.28^$$$ grams
right paw withdrawal threshold, von Frey filaments (mean) ([1]; 270 μg IA once on day 3, D7): 2.85 grams
right paw withdrawal threshold, von Frey filaments (mean) ([1]; 270 μg IA once on day 3, D10): 4.75*** grams
right paw withdrawal threshold, von Frey filaments (mean) ([1]; 270 μg IA once on day 3, D18): 6.50*** grams
right paw withdrawal threshold, von Frey filaments (mean) ([1]; 270 μg IA once on day 3, D24): 7.00*** grams
right paw withdrawal threshold, von Frey filaments (mean) ([1]; 270 μg IA once on day 3, D30): 8.25*** grams
right paw withdrawal threshold, Electronic von Frey (mean) [2, 4]: 30.03 grams
right paw withdrawal threshold, Electronic von Frey (mean) ([2]; 270 μg IA once on day 3, D7): 50.98 grams

lixisenatide
von Frey score normalized to vehicle group (31M) ([3]; 3 μg IA (group 36M), raised to and kept): 60%
right paw withdrawal threshold, von Frey filaments (mean) [1, 5]: 1.30^$$$ grams
right paw withdrawal threshold, von Frey filaments (mean) ([1]; 3 μg IA once on day 3, D7): 5.00** grams
right paw withdrawal threshold, von Frey filaments (mean) ([1]; 3 μg IA once on day 3, D10): 7.63*** grams
right paw withdrawal threshold, von Frey filaments (mean) ([1]; 3 μg IA once on day 3, D18): 7.75*** grams
right paw withdrawal threshold, von Frey filaments (mean) ([1]; 3 μg IA once on day 3, D24): 7.25*** grams
right paw withdrawal threshold, von Frey filaments (mean) ([1]; 3 μg IA once on day 3, D30): 8.88*** grams
right paw withdrawal threshold, Electronic von Frey (mean) [2, 5]: 33.55 grams
right paw withdrawal threshold, Electronic von Frey (mean) ([2]; 3 μg IA once on day 3, D7): 55.15 grams

liraglutide
von Frey score normalized to vehicle group (31M) ([3]; 180 μg IA (group 37M), at day 10, level maintained for 20 days): 70%
right paw withdrawal threshold, von Frey filaments (mean) [1, 6]: 1.60^$$$ grams
right paw withdrawal threshold, von Frey filaments (mean) ([1]; 180 μg IA once on day 3, D7): 8.00*** grams
right paw withdrawal threshold, von Frey filaments (mean) ([1]; 180 μg IA once on day 3, D10): 9.63*** grams
right paw withdrawal threshold, von Frey filaments (mean) ([1]; 180 μg IA once on day 3, D18): 11.63*** grams
right paw withdrawal threshold, von Frey filaments (mean) ([1]; 180 μg IA once on day 3, D24): 10.25*** grams
right paw withdrawal threshold, von Frey filaments (mean) ([1]; 180 μg IA once on day 3, D30): 9.00*** grams
right paw withdrawal threshold, Electronic von Frey (mean) [2, 6]: 32.88 grams
right paw withdrawal threshold, Electronic von Frey (mean) ([2]; 180 μg IA once on day 3, D7): 63.60 grams
